The text below walks through data of paper PMC12388125, “Design, Synthesis, and Pharmacological Activity of the N-(4-(1H-1,2,4-Triazol-1-yl)phenyl)-substituted-amide Derivatives” (Molecules, 2025).

Data set [1] has as its system mice. The data set can be described thus: Elevated plus maze (EPM) test. Format: in vivo. The following applies: n = 6. An excerpt: The EPM experiment is a method for evaluating whether experimental animals have an anxiety response. The principle is that, in the face of new things, mice will generate curiosity to explore (open arm), while they have a nature of darkness (closed arm), the conflict behavior between the two occurs between exploration and avoidance, resulting in anxiety. Anxious behavior can be evaluated by comparing the retention time of mice in the open and closed arms.
Flumazenil is a selective BZ antagonist with a chemical structure similar to that of BZs, which acts on central benzodiazepine (BZ) receptors and thus blocks the receptors without producing BZ-like effects.
The apparatus consisted of a black acrylic maze with two opposite open arms (50×10 cm) and two opposite closed arms (50×10×40 cm) disposed like a plus sign with a central square of 10 cm2. Entire maze wa s elevated 50 cm above the floor. The test consisted in placing the rat in the central square of the maze facing one closed arm and allowing it to explore during 5 min. This procedure wa s performed in a quiet and dimly illuminated room. The scores analysed we r e the time spent in open and closed arms, and the number of entries to both […]
widely used as an anxiety index (time spent in open arms relative to the time spent in open […]
and closed arms). […]

Data set [2] has as its system pentylenetetrazole-induced clonic seizures. Set-up: method as in doi:10.1016/j.molstruc.2025.141611. The following applies: cited from earlier work; for scPTZ, dose at which at least one of three animals was protected: lead compound of previous study.
For data set [3], the system named is MES-induced seizures. Also noted: method as in doi:10.1016/j.molstruc.2025.141611. The following applies: cited from earlier work; for MES, dose at which at least one of three animals was protected: lead compound of previous study.
The test system of data set [4] is mice. Also noted: method as in doi:10.1016/j.molstruc.2025.141611. The following applies: cited from earlier work; for NT (neurotoxicity, ROT): lead compound of previous study.
Data set [5] deals with mice. The data set can be described thus: Rotarod (ROT) neurotoxicity test. The following applies: for NT (neurotoxicity, ROT), dose at which at least one of three animals showed neurotoxicity: doses 100, 300 mg/kg. (The rotarod test checks motor coordination on a turning rod.)
Method: (§2) The neurotoxicity of the target compounds was tested using the ROT experimental model, which was divided into two dose groups, 100 and 300 mg/kg, and tested after 0.5 and 4 h of administration, respectively.
(§3) The neurotoxicity of the target compounds was determined using the ROT experimental model.
(§4) The neurotoxicity of the compounds wa s measured in mice using the rotarod test. Mice
(§5) we r e trained to stay on an accelerating rotarod (diameter, 3.2 cm) rotating at 10 rpm. Trained
(§6) animals we r e injected with the test compounds (i.p.) and neurotoxicity wa s measured as the
(§7) inability of the animal to maintain equilibrium on the rod for at least 1 min in each of the
Data set [6] concerns GABA content in brain tissue. The data set can be described thus: GABA estimation in brain tissue. Format: in vivo, Wistar rats. The following applies: 30 mg/kg, n = 5.
Method: The data obtained from the experiments were analyzed and processed and plotted using GraphPad Prism 8 software.
We i g h about 0.05 g of tissue sample in a homogenizer, add 450 µL of extracting solution
to homogenize, homogenize, transfer to an EP tube, mark the liquid level scale, and heat for 2
hours at 95°C. After heating, centrifuge at 8000 × g for 10 min and remove the supernatant for
① Standard tube: Ta k e 30 µL of different concentrations of standards and add them to
the corresponding 1.5 mL EP tube. Measurement tube: Ta k e 30 µL of sample supernatant and
add it to 1.5 mL EP tube. ② Add 50 µL of buffer solution and 40 µL of Chromogenic Agent A
to each tube in step, mix we l l , and let stand at room temperature for 5 min. ③ Add 60 µL of
Chromogenic Agent B to each tube in step, mix we l l , and heat at 95°C for 10 min, then cool at
ice bath. ④ Add 200 µL of supplementary solution to each tube in step and mix well. ⑤ Ta k e
200 µL into the corresponding we l l s of the enzyme plate, and measure the OD va l u e of each
Data set [7] relates to MES-induced seizures. The data set can be described thus: animal or person. The format is in vivo, Kunming mice. The following applies: for ED50 (MES) / PI (TD50/ED50) MES / ED50: 0.5 h; for ED50 (MES): value (95% CI); for PI (TD50/ED50) MES: Kunming, mouse, in vivo; for minimal effective dose / ED50: Mus musculus; for minimal effective dose: ip, doses 30, 100, 300 mg/kg, read-out: MES, dose at which at least one of three animals was protected; for ED50: as given in the text. The method, then: (§1) Pharmacological tests were performed using two experimental animal models, MES and scPTZ, which were divided into three dosage groups of 30, 100, and 300 mg/kg, and the anticonvulsant activity of the target compounds 6a–m and 9a–g, after 0.5 and 4 h of administration, respectively, were tested. Carbamazepine, which is effective in the MES model, was chosen as a positive control, and ethosuximide, which is effective in the scPTZ model, was chosen as a positive control. […]
Protection against the spread of
extension component of the seizure. […]

Data set [8] concerns pentylenetetrazole-induced clonic seizures. Kind of data set: animal or person. The following applies: for ED50 (scPTZ) / PI (TD50/ED50) scPTZ / ED50: 0.5 h; for ED50 (scPTZ): value (95% CI); for PI (TD50/ED50) scPTZ: Kunming, mouse, in vivo; for ED50 / minimal effective dose: Mus musculus, sc; for ED50: as given in the text, read-out: ED50 (scPTZ); for minimal effective dose: read-out: scPTZ, dose at which at least one of three animals was protected. The format is in vivo, Kunming mice. The method, then: as §1
The test compound wa s
Absence of clonic spasms indicated a […]

The test system of data set [9] is mice. The following applies: Kunming, mouse, in vivo, 0.5 h.
Method: as §2, §3, §4, §5, §6, §7
[10] abbreviates: 0.5 h after administration, doses 30, 100, 300 mg/kg.
Where [11] appears, read: 4 h after administration, doses 30, 100, 300 mg/kg.

“Also recorded” adds a separate entry of the source. Read-outs that look alike come from different tables or passages of the source.

On to `CN1C(=O)CN=C(c2ccccc2)c2cc(Cl)ccc21` [Diazepam, reference compound], for which the “EPM % of time in open arms vs control” value in the data set with mice [1] (1 mg/kg) is on record as “showed a significant difference”.

For the molecule `CCCCCOc1cc(OCCCCC)n2ncnc2n1` [I], the “scPTZ, dose at which at least one of three animals was protected” value in data set [2] (0.5 h) and in [2] (4 h) was 30 mg/kg in each case. Further, the “ED50 (scPTZ)” value in data set [2] (lead compound) is 9.5 (10.4–8.8) mg. Further, the “PI (TD50/ED50) scPTZ” value in [2] (lead compound) is reported as 20.0. Further, the “MES, dose at which at least one of three animals was protected” value in the data set with MES-induced seizures [3] (0.5 h) and in the data set on MES-induced seizures [3] (4 h) was 30 mg/kg each time. Further, the “ED50 (MES)” value in the data set on MES-induced seizures [3] (lead compound) is reported as 11.3 (12.3–10.4) mg. For the same molecule, in the data set with MES-induced seizures [3] (lead compound), the “PI (TD50/ED50) MES” value is 16.8. In addition, the “NT (neurotoxicity, ROT)” value with mice [4] (0.5 h) and in the data set on mice [4] (4 h) was above 150 mg/kg each time. In addition, in the data set on mice [4] (lead compound), the “TD50 (ROT)” value is 190.7 (207.3–175.4) mg.

The ED50 is the dose at which the effect has come halfway, by size or by number of responders. For the molecule `Cc1cccc(C(=O)Nc2ccc(-n3cncn3)cc2)c1` [Compound 6l, N-(4-(1H-1,2,4-triazol-1-yl)phenyl)-3-methylbenzamide], the “TD50 (ROT)” value in the data set on mice [5] (0.5 h, value (95% CI)) is reported as 419.5 (456.1–385.9) mg. For the same molecule, the “NT (neurotoxicity, ROT), dose at which at least one of three animals showed neurotoxicity” value (shortened to “NT (neurotoxicity, ROT), dose at which”) in the data set with mice [5] (0.5 h after administration) and in the data set on mice [5] (4 h after administration) was above 300 mg/kg in each case. Besides, the “GABA content in brain tissue vs control” value in data set [6] (2 h after administration) is “do not show significant differences”; in data set [6] (7 d continuous administration) it was “showed significant differences”. In the data set on MES-induced seizures [7], the ED50 (MES) was found to be 9.1 mg/kg. Besides, the “PI (TD50/ED50) MES” value in the data set on MES-induced seizures [7] is given as 45.9. Also, the minimal effective dose (in the data set with MES-induced seizures [7] (0.5 h after administration); in the data set on MES-induced seizures [7] (4 h after administration); in data set [8] (setting [10]); in [8] (setting [11])) was 30 mg/kg throughout. Further, the ED50 with MES-induced seizures [7] came out at 9.1 mg/kg; in [8] it was 19 mg/kg. For the same molecule, the “EPM % of time in open arms vs control” value in the data set on mice [1] (0.5 mg/kg) was “showed a significant difference”; in the data set on mice [1] (6l 0.5 mg/kg + FMZ 5 mg/kg), “did not show a significant difference”. The “EPM time in open arm vs 6l group” value with mice [1] (6l 0.5 mg/kg + FMZ 5 mg/kg) is “significantly shortened the time of the experimental animals in the open arm”. The ED50 (scPTZ) in data set [8] was determined as 19 mg/kg. Moreover, in [8], the “PI (TD50/ED50) scPTZ” value worked out at 22.1.

Turning to `CCC1(C)CC(=O)NC1=O` (stereo not shown) [Ethosuximide, reference compound], the “TD50 (ROT)” value with mice [9] is 333.7 (362.8–306.9) mg. Moreover, in [8], the ED50 (scPTZ) worked out at 94.4 mg/kg, the “PI (TD50/ED50) scPTZ” value was 3.5 and the 50% effective dose (ED50) was 94.4 mg/kg.

Regarding `CCOC(=O)c1ncn2c1CN(C)C(=O)c1cc(F)ccc1-2` [Flumazenil, reference compound], in the data set with mice [1] (5 mg/kg, listed as FMZ), the “EPM % of time in open arms vs control” value was “did not show significant differences; also recorded: did not show a significant difference”.

With `NC(=O)N1c2ccccc2C=Cc2ccccc21` [Carbamazepine, reference compound], in the data set with MES-induced seizures [7], the ED50 (MES) turned out to be 11.4 mg/kg, the “PI (TD50/ED50) MES” value was determined as 6.1 and the 50% effect level (ED50) was put at a dose of 11.4 mg/kg. In addition, the “TD50 (ROT)” value in the data set on mice [9] is given as 69.3 (75.4–63.8) mg.

In the case of `CCCCCC(=O)Nc1ccc(-n2cncn2)cc1` [Compound 9d, N-(4-(1H-1,2,4-triazol-1-yl)phenyl)hexanamide], the “NT (neurotoxicity, ROT), dose at which” value in the data set on mice [5] (0.5 h after administration) and in the data set on mice [5] (4 h after administration) was above 300 mg/kg throughout. For the same molecule, the minimal effective dose in the data set with MES-induced seizures [7] (0.5 h after administration) worked out at 30 mg/kg; in the data set with MES-induced seizures [7] (4 h after administration), 30 mg/kg; in data set [8] (setting [10]), 100 mg/kg; in [8] (setting [11]), 100 mg/kg.

Turning to `O=C(Nc1ccc(-n2cncn2)cc1)c1ccc(Cl)cc1` [Compound 6d, N-(4-(1H-1,2,4-triazol-1-yl)phenyl)-4-chlorobenzamide], the “NT (neurotoxicity, ROT), dose at which” value in the data set on mice [5] (0.5 h after administration) and in the data set on mice [5] (4 h after administration) was above 300 mg/kg in each case. Further, the minimal effective dose was 300 mg/kg in the data set with MES-induced seizures [7] (0.5 h after administration), 300 mg/kg in the data set with MES-induced seizures [7] (4 h after administration), 300 mg/kg in [8] (setting [10]) and above 300 mg/kg in data set [8] (setting [11]). For the same molecule, the “scPTZ, dose at which at least one of three animals was protected” value in data set [8] (setting [11]) is “inactive”.
